Experimental data as given in the NIST ThermoML archive (doi:10.1016/j.jct.2005.08.013).
Several values for one entry are separate records, joined by “and”; a condition that tells them apart may be missing. Identical values can stand only once.

Details: Calculated from knudsen effusion weight loss

c1ccc(-c2cc(-c3ccccc3)cc(-c3ccccc3)c2)cc1 [1,3,5-triphenylbenzene]
Crystal
Details | vapor or sublimation pressure
407.36 K | 0.00014 kPa and 0.000141 kPa and 0.000139 kPa
409.3 K | 0.000173 kPa and 0.000166 kPa and 0.000164 kPa
411.3 K | 0.000215 kPa and 0.00021 kPa and 0.000206 kPa
413.23 K | 0.000251 kPa and 0.000256 kPa
415.35 K | 0.000317 kPa and 0.000316 kPa
416.86 K | 0.000361 kPa and 0.000348 kPa
417.22 K | 0.00037 kPa and 0.000371 kPa
419.24 K | 0.000454 kPa and 0.00047 kPa
421.36 K | 0.000542 kPa and 0.000563 kPa and 0.000568 kPa
423.29 K | 0.000672 kPa and 0.000668 kPa and 0.000649 kPa
425.26 K | 0.000796 kPa and 0.000784 kPa
427.36 K | 0.000966 kPa and 0.000984 kPa and 0.001 kPa
429.29 K | 0.00117 kPa and 0.0012 kPa

O=C1c2ccccc2-c2cccc3cccc1c23 [7H-benz[de]anthracen-7-one]
Crystal
Details | vapor or sublimation pressure
390.31 K | 0.000152 kPa and 0.000149 kPa
392.23 K | 0.000179 kPa and 0.000177 kPa
394.57 K | 0.000234 kPa and 0.000221 kPa
396.35 K | 0.000263 kPa and 0.000262 kPa and 0.00026 kPa
398.22 K | 0.000323 kPa and 0.000325 kPa
400.41 K | 0.000394 kPa and 0.000381 kPa
402.19 K | 0.000471 kPa and 0.000453 kPa
404.34 K | 0.00057 kPa and 0.000564 kPa and 0.000565 kPa
406.35 K | 0.000686 kPa and 0.000679 kPa and 0.00068 kPa
408.35 K | 0.00081 kPa and 0.000796 kPa and 0.0008 kPa
410.23 K | 0.000962 kPa and 0.000954 kPa and 0.000926 kPa

c1ccc2cc3ccccc3cc2c1 [anthracene]
Crystal
Details | vapor or sublimation pressure
340.41 K | 0.000143 kPa and 0.000144 kPa and 0.000141 kPa
342.25 K | 0.000172 kPa and 0.000173 kPa and 0.000167 kPa
344.06 K | 0.000211 kPa and 0.000206 kPa
346.4 K | 0.000258 kPa and 0.000262 kPa and 0.000263 kPa
348.15 K | 0.000306 kPa and 0.000304 kPa and 0.000308 kPa
350.15 K | 0.000375 kPa and 0.000371 kPa and 0.000376 kPa
352.39 K | 0.000464 kPa and 0.000459 kPa and 0.000458 kPa
354.06 K | 0.00055 kPa and 0.000548 kPa and 0.000554 kPa
356.2 K | 0.000673 kPa and 0.000679 kPa and 0.000658 kPa
358.22 K | 0.000815 kPa and 0.000821 kPa and 0.00081 kPa
360.38 K | 0.00101 kPa and 0.00098 kPa

O=C(O)c1ccccc1 [benzoic acid]
Crystal
Details | vapor or sublimation pressure
299.33 K | 0.000134 kPa and 0.000131 kPa
301.04 K | 0.000162 kPa and 0.00016 kPa and 0.000155 kPa
303.16 K | 0.000203 kPa and 0.000201 kPa and 0.00021 kPa
305.24 K | 0.000271 kPa and 0.000265 kPa and 0.000261 kPa
307.13 K | 0.000332 kPa and 0.000326 kPa and 0.000323 kPa
309.25 K | 0.000414 kPa and 0.000408 kPa and 0.00042 kPa
311.3 K | 0.000525 kPa and 0.000512 kPa and 0.000524 kPa
313.2 K | 0.000643 kPa and 0.000622 kPa and 0.000647 kPa
315.27 K | 0.000815 kPa and 0.000799 kPa and 0.00083 kPa
317.32 K | 0.00105 kPa and 0.00102 kPa and 0.00101 kPa

c1ccc2c(c1)ccc1ccccc12 [phenanthrene]
Crystal 2
Details | vapor or sublimation pressure
313.46 K | 0.000123 kPa and 0.000124 kPa
315.48 K | 0.000151 kPa and 0.000155 kPa and 0.000156 kPa
317.41 K | 0.000185 kPa and 0.000191 kPa and 0.000193 kPa
319.47 K | 0.000238 kPa and 0.000239 kPa and 0.000235 kPa
321.48 K | 0.000292 kPa and 0.000293 kPa and 0.000296 kPa
323.16 K | 0.000343 kPa and 0.000352 kPa
325.46 K | 0.000436 kPa and 0.000446 kPa and 0.000453 kPa
327.47 K | 0.000543 kPa and 0.000544 kPa and 0.00055 kPa
329.47 K | 0.00067 kPa and 0.000675 kPa and 0.000678 kPa
331.42 K | 0.000814 kPa and 0.000825 kPa and 0.000834 kPa
333.16 K | 0.001 kPa and 0.00101 kPa
